Source: a melting point compilation (Tetko et al.)

melting point	SMILES
219 to 221 °C	O=C(O)c1cc(-c2ccccc2)nc2cc(Br)ccc12
64 to 66 °C	Cc1ccncc1-n1ccnc1
54 to 56 °C	CCCC(=O)Nc1cccc(CN)c1
89 to 91 °C	COC(=O)c1cc(OC)c(OC(F)F)cc1N
97 to 99 °C	O=C(O)Cc1ccn(-c2ccc(F)cc2)n1
285 to 287 °C	Cc1c[nH]c(=O)n1-c1ccc(C(=O)O)cc1
99 to 101 °C	CCOC(=O)c1cccnc1S
209 to 211 °C	O=C(O)c1ccc(CNC(=O)c2cccs2)cc1
188 to 190 °C	CS(=O)(=O)Cc1cccc(C(=O)O)c1
113 to 115 °C	O=C(Cc1nc2ccccc2s1)c1ccccc1
59 to 61 °C	O=S(=O)(Cl)c1ccc(OCCBr)cc1
145 to 147 °C	COc1ccc(C(N)=O)c(O)c1
168 to 170 °C	Fc1ccc(CNc2nnc(S)s2)cc1
149 to 151 °C	Nc1nc(-c2cccc(Cl)c2)ns1
121 to 123 °C	FC(F)Oc1ccc(-c2nnc(S)o2)cc1
179 to 181 °C	O=C(O)c1cc(=O)c(OCc2ccccc2)co1
187 to 189 °C	NC(=O)c1c[nH]nc1-c1ccccc1
165 to 167 °C	NC(=NO)c1ccc(OCc2cccnc2)cc1
124 to 126 °C	Nc1nonc1-c1ccccn1
204 to 206 °C	COc1ccccc1-n1cnnc1S
92 to 94 °C	CCOC(=O)Cc1csc(NC(=O)Cc2ccccc2)n1
32 to 34 °C	CCCCCCOc1ccc(CO)cc1
143 to 145 °C	Cc1nc(COc2ccccc2/C=C/C(=O)O)cs1

melting point	SMILES
35 to 37 °C	COc1cc(CN)cc(OC)c1
85 to 87 °C	COCCOc1ccc(C(C)=O)cc1OC
59 to 61 °C	Clc1ccc(-n2cccn2)cc1Cl
183 to 185 °C	N#CCc1ccc(Oc2ccc(C(=O)O)cc2)cc1
79 to 81 °C	COc1c(N)cc(C(C)(C)C)cc1C(C)(C)C
125 to 127 °C	CCN1CCN(C(=O)c2ccc(N)cc2)CC1
222 to 224 °C	Nc1cc(-c2cccs2)ncn1
143 to 145 °C	NCc1ccc(C(=O)N2CCNC(=O)C2)cc1
116 to 118 °C	COc1ccc(N)cc1OCc1ccncc1
99 to 101 °C	OC(c1ccccc1)c1nccs1 (centres undefined)
201 to 203 °C	O=C(O)Cc1cnc2ccccc2c1
111 to 113 °C	COc1cccc(CNC(N)=O)c1
50 to 52 °C	COc1ccccc1C(C)CC(=O)O (centres undefined)
164 to 166 °C	COc1cc(C(=O)O)cc(OC)c1C(C)C
92 to 94 °C	O=C(c1ccc(F)cc1)c1cccnc1
153 to 155 °C	O=C(O)CC1c2ccccc2Oc2ccccc21
301 to 303 °C	N#Cc1ccc(-c2cccs2)[nH]c1=O
111 to 113 °C	Cc1ccc(-c2nc(C)c(C(C)O)s2)cc1 (centres undefined)
236 to 238 °C	Nc1ccc(N2CCOCC2)c(S(=O)(=O)Nc2ccc(Cl)cc2)c1
171 to 173 °C	Cc1nn(-c2ccc(F)cc2)c(C)c1CC(=O)O
119 to 121 °C	NCC(Cc1ccc(F)cc1)C(N)=O (centres undefined)
228 to 230 °C	O=C(O)c1cccnc1Sc1ccc2c(c1)OCCO2

Continued, compound first:

SMILES	melting point
Cc1cc(Cl)c2cc([N+](=O)[O-])ccc2n1	140 to 142 °C
CCCc1cc(C(=O)O)sc1C	94 to 96 °C
COc1sc(C=O)cc1Br	115 to 117 °C
NC(=O)CNCCC1CCCCC1	111 to 113 °C
Cc1cc(C(=O)CCl)c(C)n1-c1nccs1	85 to 95 °C
CC1CC(C)CN(S(=O)(=O)c2ccc(C(=O)O)cc2)C1 (centres undefined)	275 to 277 °C
CS(=O)(=O)N1CCC(NC(=O)N2CCC(C(=O)O)CC2)CC1	197 to 199 °C
CC(C)(C)OC(=O)N1CCCC(C#N)C1 (centres undefined)	64 to 66 °C
N#Cc1cnn(-c2ncccn2)c1N	320 to 322 °C
CC1CCN(C(=O)c2ccccc2N)CC1	59 to 61 °C
NNC(=O)CCN1CCN(c2ccccc2)CC1	120 to 122 °C
COC(=O)C1CCN(c2nccc3sccc23)CC1	83 to 85 °C
O=C1C(Br)CCN1c1cccc(Cl)c1 (centres undefined)	89 to 91 °C
Cc1ccccc1Nc1nc2sc(C(=O)O)cc2s1	232 to 234 °C
Cc1nn(-c2ncc(C(F)(F)F)cc2Cl)c(C(F)(F)F)c1C(=O)O	167 to 169 °C
O=c1[nH]cnc2ccsc12	219 to 221 °C
O=C(O)c1ccc2c(c1)COC2	164 to 166 °C
Cc1cc(O)cc(=O)n1CC(=O)O	248 to 250 °C
O=C(O)CCC(=O)NCC(=O)c1ccccc1Cl	151 to 153 °C
O=C1CCc2[nH]c3ccccc3c2C1	129 to 131 °C
OCc1cn2cc(Cl)cc(Cl)c2n1	177 to 179 °C
Sc1nc2c(s1)CCCC2	119 to 121 °C
Cc1[nH]c(=O)sc1S(=O)(=O)N1CCCC1C(=O)O (centres undefined)	247 to 249 °C
Cc1cc(S(=O)(=O)Cl)cc(C(=O)O)c1Cl	169 to 171 °C
O=[N+]([O-])c1cccc(Cl)c1S(=O)(=O)Cl	81 to 83 °C

SMILES	melting point
O=C(O)C1CCCN(S(=O)(=O)c2ccc(Br)cc2)C1 (centres undefined)	207 to 209 °C
CNC(=O)c1ccc(Cl)cc1N	93 to 95 °C
CS(=O)(=O)c1ccc(NC(=O)OCC(F)(F)F)cc1	175 to 177 °C
NC(=NO)c1cc(Br)cs1	132 to 134 °C
CCN1N=C(C)CC1=O	107 to 109 °C
CC(=O)c1ccc(N2CCCC2)cc1O	120 to 122 °C
COC(=O)c1cc([N+](=O)[O-])c(F)cc1Cl	59 to 61 °C
Nc1cccc(OCCF)c1	33 to 35 °C
Cn1c(C(=O)O)cc(Cl)c1Cl	178 to 180 °C
Cc1[nH]c2c(C(=O)O)cccc2c1C	206 to 208 °C
O=C(O)c1ccnc(C2CCCC2)n1	129 to 131 °C
NC(=O)CN1CCC(N)CC1	74 to 76 °C
Cn1c(=O)[nH]cc(C(=O)O)c1=O	233 to 235 °C
CC(C)(C)OC(=O)NCc1ccc(C(=O)O)cc1	164 to 166 °C
CC(N)C(O)c1ccc(F)cc1 (centres undefined)	87 to 89 °C
Cc1nc(C(=O)O)c2n1CCCC2	225 to 227 °C
O=C(O)Cn1nc(-c2ccccc2)oc1=O	196 to 198 °C
NS(=O)(=O)c1cccc(O)c1	159 to 161 °C
Nc1sc2c(c1-c1nc3ccccc3s1)CCCC2	100 to 104 °C
O=C(O)c1noc(-c2cc(F)ccc2F)n1	119 to 121 °C
CC(Cl)C(=O)Nc1ccc2c(c1)OCCCO2 (centres undefined)	97 to 99 °C
COC(=O)c1cc(F)cc(Br)c1N	36 to 38 °C
O=Cc1ccc(-c2ccc(Cl)cc2C(F)(F)F)s1	58 to 60 °C
CC(C)(C)OC(=O)N1CCN(c2ccc(Cl)nn2)CC1	162 to 164 °C
Cc1ccc(Cl)nc1CC(=O)O	120 to 122 °C

SMILES	melting point
O=C(Nc1nccs1)C1CCNCC1	196 to 198 °C
CC1CN(S(=O)(=O)CCN)CC(C)O1 (centres undefined)	73 to 75 °C
Cc1ccc(C(C)C)c2c1C(=O)CCO2	36 to 38 °C
CC(C)(C)NC(=O)CCl	75 to 77 °C
Cc1cccc(N2N=C(C(=O)O)CCC2=O)c1	152 to 154 °C
CN(C)CCN1C(=O)C(=O)c2cc(Br)ccc21	102 to 104 °C
O=c1[nH]c(CCl)nc2c1oc1ccccc12	98 to 100 °C
NC(=O)N1CCCC1	222 to 224 °C
CCOC(=O)CCc1nc(CC(=O)NC)no1	84 to 86 °C
CC(C)(C)c1ccc(C(=O)O)cc1[N+](=O)[O-]	156 to 158 °C
Cc1cccc(NC(=O)C2CCCNC2)n1 (centres undefined)	124 to 126 °C
O=C1CCCc2[nH]c(=O)c(C(=O)O)cc21	289 to 291 °C
O=C(O)c1cc(NS(=O)(=O)c2cc([N+](=O)[O-])ccc2Cl)ccc1O	43 to 45 °C
Cn1cc(C#N)cc1C(=O)O	239 to 241 °C
Cc1ccc(C)c(S(=O)(=O)NN)c1	75 to 77 °C
Cn1c(S)nnc1-c1ccccc1Cl	144 to 146 °C
NC(=O)c1c(N)sc2c1CCCC2	153 to 155 °C
CCOC(=O)c1c(NC(=O)CCl)sc(C(=O)OC(C)(C)C)c1C	168 to 170 °C
NC(CC(=O)O)c1cc(Cl)cc(Cl)c1 (centres undefined)	205 to 207 °C
CC(C)Cc1nc(N)sc1C(=O)O	149 to 151 °C
CCOC(=O)CC(=O)CN1C(=O)c2ccccc2S1(=O)=O	104 to 106 °C
Cc1ccc(Cl)c(S(=O)(=O)Cl)c1	49 to 51 °C
N#Cc1cccc(Br)c1N=C=O	64 to 66 °C
C#CCNC(=O)NC1(C(=O)O)CCc2ccccc21 (centres undefined)	181 to 183 °C
O=C1Nc2ccc(Br)cc2C1=NO	268 to 270 °C

SMILES	melting point
O=C(O)c1cn(-c2ccccc2Cl)nn1	133 to 135 °C
CC(Oc1ccccc1Br)C(=O)O (centres undefined)	138 to 140 °C
CCc1nnsc1C(=O)O	125 to 133 °C
Cc1cc(C)nc(-n2cc(C(=O)O)c(C)n2)n1	287 to 289 °C
CCN(CC)c1nc2sc(C(=O)O)cc2s1	191 to 193 °C
Cc1cc(C(=O)N2CCCCC2C)ccc1N (centres undefined)	123 to 125 °C
Cc1cc([N+](=O)[O-])cnc1N1CCCCC1C (centres undefined)	48 to 50 °C
CC(N)C(=O)NO (centres undefined)	159 to 161 °C
O=C(O)C1(c2ccc(Cl)c(Cl)c2)CCC1	116 to 118 °C
Cc1ccccc1-c1noc(=O)[nH]1	155 to 157 °C
O=C1CCC(C(F)(F)F)=NN1	75 to 77 °C
O=C(O)c1oc2ccccc2c1CO	153 to 155 °C
NS(=O)(=O)Cc1ccon1	106 to 108 °C
c1ccc(NC2CCCCC2)nc1	123 to 125 °C
CCOC(=O)CC(=O)c1[nH]c(C)c(C(=O)OCC)c1C	141 to 143 °C
Cc1cc(C(=O)CCl)c(C)n1C(C)C	45 to 47 °C
O=C1CC(c2ccccc2)=NN1	246 to 248 °C
O=C(O)c1ccn(-c2ccccc2[N+](=O)[O-])n1	223 to 225 °C
CN(C)C(=O)c1ccc(Cl)nn1	137 to 139 °C
CC(=O)N(C)c1ccc(S(N)(=O)=O)cc1	153 to 155 °C
N#CCNc1cccc(F)c1	39 to 41 °C
O=C1CC2CCCc3cccc1c32 (centres undefined)	95 to 97 °C
Nc1sc2c(c1-c1nc3ccccc3[nH]1)CCCC2	175 to 177 °C
CNc1ncc(I)cn1	134 to 136 °C
